Measurements from ChEMBL document CHEMBL1201862, “PubChem BioAssay data set” (2004).
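The compound was tested at five concentrations on cells cultured in 96-well plates, with a 48-hour exposure period. The concentration for 50% growth inhibition is given as GI50.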 Calls of active or inactive are those of the source. Cut-off read from the data, not from the text of the source: active = GI50 up to about 1.1 µM and inactive = higher.

Tests used:
Experiment in all cases: NCI tumour cell line growth inhibition, 48 h
HCC 2998 = system: HCC 2998
UACC-62 = system: UACC-62
NCI-H23 = system: NCI-H23
TK-10 = system: TK-10
KM-20L2 = system: KM-20L2
RPMI-8226 = system: RPMI-8226
PC-3 = system: PC-3
OVCAR-3 = system: OVCAR-3
U-251 = system: U-251
UO-31 = system: UO-31
SW-620 = system: SW-620
HCT-15 = system: HCT-15
CAKI-1 = system: CAKI-1
MDA-MB-435 = system: MDA-MB-435
EKVX = system: EKVX
MCF7 = system: MCF7
OVCAR-8 = system: OVCAR-8
RXF 393 = system: RXF 393
786-0 = system: 786-0
SK-MEL-5 = system: SK-MEL-5

SMILES	GI50 (HCC 2998)	GI50 (UACC-62)	GI50 (NCI-H23)	GI50 (TK-10)	GI50 (KM-20L2)	GI50 (RPMI-8226)	GI50 (PC-3)	GI50 (OVCAR-3)	GI50 (U-251)	GI50 (UO-31)	GI50 (SW-620)	GI50 (HCT-15) [µM]	GI50 (CAKI-1)	GI50 (MDA-MB-435)	GI50 (EKVX)	GI50 (MCF7)	GI50 (OVCAR-8)	GI50 (RXF 393)	GI50 (786-0)	GI50 (SK-MEL-5)
c1ccc2c(NCCCCCCNc3c4ccccc4nc4ccccc34)c3ccccc3nc2c1	0.171 µM (active)	695 nM (active)	274 nM (active)	1.34 µM (inactive)	0.0785 µM (active)	< 0.0358 µM (active)	445 nM (active)	0.277 µM (active)	276 nM (active)	11.3 µM (inactive)	0.0458 µM (active)	4.34	1.53 µM (inactive)	887 nM (active)	0.367 µM (active)	155 nM (active)	289 nM (active)	0.191 µM (active)	0.232 µM (active)	1.4 µM (inactive)
COc1nc(NC2OC(COC(C)=O)C(OC(C)=O)C(OC(C)=O)C2OC(C)=O)c(/N=C/C=N/c2c(NC3OC(COC(C)=O)C(OC(C)=O)C(OC(C)=O)C3OC(C)=O)nc(OC)n(C)c2=O)c(=O)n1C (centres undefined)	> 100 µM (inactive)	> 100000 nM (inactive)	> 100000 nM (inactive)	56.4 µM (inactive)	> 100 µM (inactive)	> 100 µM (inactive)	> 100000 nM (inactive)	> 100 µM (inactive)	30500 nM (inactive)	> 100 µM (inactive)	> 100 µM (inactive)	> 100	> 100 µM (inactive)	> 100000 nM (inactive)	> 100 µM (inactive)	> 100000 nM (inactive)	> 100000 nM (inactive)	30.5 µM (inactive)	51.5 µM (inactive)	> 100 µM (inactive)
C[C@H](N)C(=O)N[C@@H]1[C@H]2C(=C(O)C[C@@H](O)[C@@H]2O)C(=O)O[C@]1(C)C(Cl)Cl [BACTOBOLIN]	0.164 µM (active)	230 nM (active)	183 nM (active)	0.356 µM (active)	0.262 µM (active)		232 nM (active)	0.34 µM (active)	144 nM (active)	0.979 µM (active)	0.145 µM (active)	0.597	0.166 µM (active)	248 nM (active)	0.207 µM (active)	146 nM (active)	167 nM (active)	0.17 µM (active)	0.0655 µM (active)	0.129 µM (active)
COc1ccc(CC2C(=O)NC(C)C(=O)N(C)C3Cc4ccc(cc4)Oc4cc(ccc4O)CC(C(=O)NC(C)C(=O)NC(C)C(=O)N2C)N(C)C3=O)cc1 (centres undefined)	0.0175 µM (active)	17.5 nM (active)	17.5 nM (active)	0.0257 µM (active)	0.0175 µM (active)	0.0175 µM (active)	< 0.1 nM (active)		17.5 nM (active)	0.857 µM (active)	0.0177 µM (active)	0.851		< 0.1 nM (active)	0.0175 µM (active)	17.5 nM (active)	19.1 nM (active)	0.0175 µM (active)	< 0.0001 µM (active)	0.0175 µM (active)
CC1=CCCC2C1(C)CCC(C)C2(C)Cc1cc(O)ccc1O (centres undefined)	8.59 µM (inactive)	8490 nM (inactive)	4440 nM (inactive)	11.1 µM (inactive)	10.8 µM (inactive)	2.86 µM (inactive)	5750 nM (inactive)	5.74 µM (inactive)	4260 nM (inactive)	4.84 µM (inactive)	6.12 µM (inactive)	8.73	7.1 µM (inactive)	7240 nM (inactive)	6.27 µM (inactive)	5620 nM (inactive)	4540 nM (inactive)	7.6 µM (inactive)	7.24 µM (inactive)	9.16 µM (inactive)
O=c1c(C(c2ccc([N+](=O)[O-])cc2)c2c(O)c3ccccc3n(-c3ccccc3)c2=O)c(O)c2ccccc2n1-c1ccccc1	12.4 µM (inactive)	3760 nM (inactive)	11200 nM (inactive)	44 µM (inactive)	27.2 µM (inactive)	12.2 µM (inactive)		24.1 µM (inactive)	10200 nM (inactive)	8.51 µM (inactive)	18.4 µM (inactive)	10.1	44.4 µM (inactive)		24.5 µM (inactive)		14900 nM (inactive)	14.4 µM (inactive)	11.6 µM (inactive)	11.4 µM (inactive)
